Drawing on US20240150340A1, “CDK Inhibitors And Their Use As Pharmaceuticals” (Prelude Therapeutics Incorporated, priority 2022, published 2024), this text covers IC50 for ten molecules.

One test concerns the target T1, CDK2/Cyclin E2 (Homo sapiens, UniProt P24941).
T1 construct: Recombinant protein complex CDK2/Cyclin E2, expressed from insect cell, was purchased from ProQinase
Briefly: CDK2/CyclinE2 Enzymatic Activity Assay (TR-FRET). It counts as biochemical. Conditions: ATP 1 mM final, read-out: CDK2_E1 IC50. The method, boiled down:
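Recombinant insect-cell CDK2/Cyclin E2 (1 nM) phosphorylated ULight-4E-BP1 (50 nM) with 1 mM ATP in HEPES pH 7.4 buffer, after 20 min compound preincubation; MgCl2 (10 mM) started the 45 min reaction at 37° C. Europium anti-phospho-4E-BP1 TR-FRET read; 9-dose IC50 by 4-parameter fit.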
(In general: In TR-FRET formats the signal depends on donor and acceptor labels being close together.)

For a further test, the target named is T2, CDK4/Cyclin D1 (Homo sapiens, UniProt P11802).
T2 construct: purchased ProQinase; host or cells: insect cell
The experiment in a line: CDK4/CyclinD1 Enzymatic Activity Assay (TR-FRET). It counts as biochemical. The settings on record: ATP 2 mM final, read-out: CDK4_D1 IC50. The method, boiled down: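 Insect-cell-expressed CDK4/Cyclin D1 (1 nM) with ULight-4E-BP1 (100 nM) and 2 mM ATP in HEPES pH 7.4; 9-dose 3-fold compound series preincubated 20 min, reaction started with 10 mM MgCl2, 45 min at 37° C. Europium anti-P-4E-BP1 TR-FRET read; IC50 from 4-parameter Hill fit.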

The next test relates to OVCAR3 p-RB. Briefly: pRB ICW Assay in OVCAR3 Cells. The test is classed as cell-based. The settings on record: Homo sapiens, OVCAR-3, incubated with compound for 2 hours. Put shortly:
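In-Cell Western on OVCAR3: phospho-RB antibody signal with DRAQ5 counterstain read at 700 and 800 nm after fixation. Compounds were applied for 2 h at 37° C. as 9-point ½-log dilutions in duplicate; 10 μM reference compound defined full inhibition.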

pIC50: −log10 of the molar value.

T2 sequence (P11802 whole entry): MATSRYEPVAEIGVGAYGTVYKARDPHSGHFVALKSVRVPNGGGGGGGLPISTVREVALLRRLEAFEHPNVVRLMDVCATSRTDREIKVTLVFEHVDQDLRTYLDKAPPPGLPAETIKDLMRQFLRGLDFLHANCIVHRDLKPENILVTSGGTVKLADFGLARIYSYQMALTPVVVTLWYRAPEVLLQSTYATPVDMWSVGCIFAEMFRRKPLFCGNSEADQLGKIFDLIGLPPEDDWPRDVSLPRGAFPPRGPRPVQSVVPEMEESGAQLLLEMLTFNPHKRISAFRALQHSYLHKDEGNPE
T2 sequence (P24385 whole entry partner): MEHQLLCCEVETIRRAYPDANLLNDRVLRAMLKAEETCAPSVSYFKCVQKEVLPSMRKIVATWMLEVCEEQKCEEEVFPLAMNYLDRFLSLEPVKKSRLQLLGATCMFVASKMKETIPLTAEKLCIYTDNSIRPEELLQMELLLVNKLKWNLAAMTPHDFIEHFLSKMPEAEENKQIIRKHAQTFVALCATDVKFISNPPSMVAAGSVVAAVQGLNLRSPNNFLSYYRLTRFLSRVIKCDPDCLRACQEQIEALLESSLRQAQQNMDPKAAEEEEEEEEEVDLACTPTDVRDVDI

Consider `Cn1cnc(S(=O)(=O)N2CCC(Nc3ncc(C(F)(F)F)c(-c4nc(C(N)=O)cs4)n3)CC2)c1` [Example 92, 2-(2-((1-((1-Methyl-1H-imidazol-4-yl)sulfonyl)piperidin-4-yl)amino)-5-(trifluoromethyl)pyrimidin-4-yl)thiazole-4-carboxamide], for which the pIC50 at CDK2/Cyclin E2, at CDK4/Cyclin D1 and with OVCAR3 p-RB was < 6.30 throughout.

In the case of `Cc1sc(-c2nc(NC3CCN(S(=O)(=O)c4cnn(C)c4)CC3)ncc2C(F)(F)F)cc1C(F)F` [Example 79, 4-(4-(difluoromethyl)-5-methylthiophen-2-yl)-N-(1-((1-methyl-1H-pyrazol-4-yl)sulfonyl)piperidin-4-yl)-5-(trifluoromethyl)pyrimidin-2-amine], the pIC50 (in general, −log10 of the IC50, conventionally taken in molar units) is ≥ 7.00 at CDK2/Cyclin E2, ≥ 7.00 on CDK4/Cyclin D1 and 6.30 to 7.00 in the test with OVCAR3 p-RB.

With `CS(=O)(=O)N1CCC(Nc2ncc(C(F)(F)F)c(-c3cc(C(N)=O)ns3)n2)CC1` [Example 84, 5-(2-((1-(methylsulfonyl)piperidin-4-yl)amino)-5-(trifluoromethyl)pyrimidin-4-yl)isothiazole-3-carboxamide], the negative-log IC50 (pIC50) at CDK2/Cyclin E2, at CDK4/Cyclin D1 and in the test on OVCAR3 p-RB was ≥ 7.00 in each case.

As to `C[C@@H]1CN(S(=O)(=O)c2cnn(CC#N)c2)CC[C@@H]1Nc1ncc(C(F)(F)F)c(-c2cc(C(N)=O)cs2)n1` [Example 87, 5-(2-(((3R,4S)-1-((1-(Cyanomethyl)-1H-pyrazol-4-yl)sulfonyl)-3-methylpiperidin-4-yl)amino)-5-(trifluoromethyl)pyrimidin-4-yl)thiophene-3-carboxamide], the pIC50 on CDK2/Cyclin E2, on CDK4/Cyclin D1 and in the test on OVCAR3 p-RB was ≥ 7.00 throughout.

With `Cc1sc(-c2nc(N[C@@H]3CCN(S(C)(=O)=O)C[C@H]3F)ncc2C(F)(F)F)cc1C(N)=O` [Example 8, 5-(2-(((3R,4R)-3-fluoro-1-(methylsulfonyl)piperidin-4-yl)amino)-5-(trifluoromethyl)pyrimidin-4-yl)-2-methylthiophene-3-carboxamide], the pIC50 at CDK2/Cyclin E2, at CDK4/Cyclin D1 and in the test with OVCAR3 p-RB was ≥ 7.00 each time.

For the molecule `CC(O)c1cnc(-c2nc(NC3CCN(S(=O)(=O)c4cnn(C)c4)CC3)ncc2C(F)(F)F)s1` (stereo not drawn) [Example 89, 1-(2-(2-((1-((1-Methyl-1H-pyrazol-4-yl)sulfonyl)piperidin-4-yl)amino)-5-(trifluoromethyl)pyrimidin-4-yl)thiazol-5-yl)ethan-1-ol], the pIC50 at CDK2/Cyclin E2, on CDK4/Cyclin D1 and in the test with OVCAR3 p-RB was ≥ 7.00 in each case.

For the molecule `C[C@@H]1CN(S(C)(=O)=O)CC[C@@H]1Nc1ncc(C(F)(F)F)c(-c2ncc(C(C)(O)C(F)F)s2)n1` (stereo partly drawn) [Example 142, 1,1-difluoro-2-(2-(2-(((3R,4S)-3-methyl-1-(methylsulfonyl)piperidin-4-yl)amino)-5-(trifluoromethyl)pyrimidin-4-yl)thiazol-5-yl)propan-2-ol], the pIC50 at CDK2/Cyclin E2 was ≥ 7.00; at CDK4/Cyclin D1, 6.30 to 7.00; in the test with OVCAR3 p-RB, 6.30 to 7.00.

On to `Cc1sc(-c2nc(NC3CCN(S(=O)(=O)c4cnn(CC#N)c4)CC3)ncc2C(F)(F)F)cc1C#N` [Example 88, 5-(2-((1-((1-(cyanomethyl)-1H-pyrazol-4-yl)sulfonyl)piperidin-4-yl)amino)-5-(trifluoromethyl)pyrimidin-4-yl)-2-methylthiophene-3-carbonitrile], for which the negative logarithm of the IC50 (pIC50) on CDK2/Cyclin E2, on CDK4/Cyclin D1 and in the test with OVCAR3 p-RB was ≥ 7.00 each time.

On to `Cn1cc(S(=O)(=O)N2CCC(Nc3ncc(C(F)(F)F)c(-c4cc(C#N)cs4)n3)CC2)cn1` [Example 69, 5-(2-((1-((1-Methyl-1H-pyrazol-4-yl)sulfonyl)piperidin-4-yl)amino)-5-(trifluoromethyl)pyrimidin-4-yl)thiophene-3-carbonitrile], for which the pIC50 on CDK2/Cyclin E2 was ≥ 7.00; at CDK4/Cyclin D1 it was 6.30 to 7.00; with OVCAR3 p-RB it was ≥ 7.00.

Regarding `Cn1cnc(S(=O)(=O)N2CCC(Nc3ncc(C(F)(F)F)c(-c4cc(C(N)=O)ns4)n3)CC2)c1` [Example 50, 5-(2-((1-((1-methyl-1H-imidazol-4-yl)sulfonyl)piperidin-4-yl)amino)-5-(trifluoromethyl)pyrimidin-4-yl)isothiazole-3-carboxamide], the negative logarithm of the IC50 (pIC50) at CDK2/Cyclin E2, at CDK4/Cyclin D1 and in the test with OVCAR3 p-RB was ≥ 7.00 in each case.
